# Reference: EP4527828A1, “BIPHENYL COMPOUND, PHARMACEUTICAL COMPOSITION, METHOD FOR PREPARING SAME, AND USE THEREOF” (Longivitron (Suzhou) Biotechnology Co., Ltd, priority 2022, dated 2023)
# pIC50, pKd: −log10 of the molar value.
# Key:
# [1] = molecular target: T1, LAG3/MHCII (Homo sapiens, UniProt P18627); assay: HTRF binding inhibition of LAG3 and its ligand MHCII; details: for pIC50: binding inhibition LAG3/MHCII; for inhibition at 10 µM: compound at 10 µM, read-out: Inhibition rate
# T1 sequence (P18627 23-450 limits assumed): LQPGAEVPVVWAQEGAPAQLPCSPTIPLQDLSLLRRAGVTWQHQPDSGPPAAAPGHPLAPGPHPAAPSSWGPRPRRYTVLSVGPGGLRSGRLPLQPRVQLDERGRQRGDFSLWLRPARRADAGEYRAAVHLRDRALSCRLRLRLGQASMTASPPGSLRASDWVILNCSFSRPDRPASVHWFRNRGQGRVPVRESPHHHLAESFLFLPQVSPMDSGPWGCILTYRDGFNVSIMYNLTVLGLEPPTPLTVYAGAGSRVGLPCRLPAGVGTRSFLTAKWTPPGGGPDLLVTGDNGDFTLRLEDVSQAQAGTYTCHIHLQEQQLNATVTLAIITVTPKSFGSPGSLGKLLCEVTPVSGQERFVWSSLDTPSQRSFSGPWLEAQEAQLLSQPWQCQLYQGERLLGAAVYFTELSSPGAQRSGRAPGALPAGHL
# Description: HTRF (Homogeneous time-resolved fluorescence) is based on two techniques, fluorescence resonance energy transfer (FRET) and time-resolved fluorescence (TRF). The detection was carried out using a 384-well plate. 2 µL of a compound to be tested with an appropriate concentration was collected, 4 µL of Tag1-LAG3 protein (with a final concentration of 10 nmol·L^-1) was added, 4 µL of Tag2-MHCII (with a final concentration of 20 nmol·L^-1) was added, and the plate was incubated at room temperature for 15 min. 10 µL of Anti-Tag1-Tb working solution (prepared by adding 25 µL of Anti-Tag1-Tab mother solution to 2475 µL of dilution buffer) was added, 10 µL of Anti-Tag2-XL665 working solution (prepared by adding 25 µL of Tag2-XL665 mother solution to 2475 µL of dilution buffer) was added, and the plate was sealed with a film and incubated at room temperature for 1 h. The detection was carried out using a Perkin Elma Envision instrument.
# [2] = molecular target: T2, Human LAG3 protein (Homo sapiens, UniProt P18627); assay: SPR interaction assay, CM5 chip amino coupling, human LAG3; format: binding
# T2 sequence (P18627 23-525): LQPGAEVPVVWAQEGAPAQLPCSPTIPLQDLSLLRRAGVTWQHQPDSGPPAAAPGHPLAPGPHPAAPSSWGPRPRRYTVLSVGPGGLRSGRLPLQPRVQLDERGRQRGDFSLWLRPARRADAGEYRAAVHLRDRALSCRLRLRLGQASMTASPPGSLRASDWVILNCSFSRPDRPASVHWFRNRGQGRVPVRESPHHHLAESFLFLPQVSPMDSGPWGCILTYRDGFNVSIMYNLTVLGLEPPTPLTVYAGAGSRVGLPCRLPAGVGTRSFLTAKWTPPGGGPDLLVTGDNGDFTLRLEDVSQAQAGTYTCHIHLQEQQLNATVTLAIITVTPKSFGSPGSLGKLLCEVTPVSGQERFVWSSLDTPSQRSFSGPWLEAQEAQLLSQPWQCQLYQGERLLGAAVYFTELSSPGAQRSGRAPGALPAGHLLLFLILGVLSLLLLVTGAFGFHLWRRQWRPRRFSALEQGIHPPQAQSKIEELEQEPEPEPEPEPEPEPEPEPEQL
# From the text: (§1) A surface plasmon is an electromagnetic wave on a metal surface and is generated by the interaction of photons and electrons which are freely vibrated. Surface plasmon resonance (SPR) is an optical phenomenon that occurs on the surfaces of two media, and such a phenomenon can be induced by photons or electrons. When light enters an optically thinner medium from an optically denser medium, the phenomenon of total reflection occurs, and an evanescent wave is generated and enters the optically thinner medium. When the totally reflected evanescent wave meets the plasmon wave on the metal surface, resonance may occur, the energy of the reflected light decreases, and a resonance peak occurs on the energy spectrum of the reflected light. Such a resonance is called surface plasmon resonance. The angle of incidence causing the surface plasmon resonance is called an SPR angle. An SPR biosensor provides a sensitive, non-labeled detection technique for monitoring intermolecular interactions in real time. The sensor detects the change in the SPR angle, and the SPR is related to the refractive index of the metal surface. When an analyte binds to the chip surface, the refractive index of the chip surface changes, thus causing the change in the SPR angle. This is the basic principle for the SPR biosensor to detect intermolecular interactions in real time. During the interaction analysis, the change in the SPR angle is recorded on the sensorgram in real time.
# (§2) Through the information query, the theoretical isoelectric point of the LAG3 protein is about 9.82, and the amino coupling method was contemplated to immobilize the protein. Since the main ligands of the LAG3 protein are FGL1 and MHCII proteins, after the LAG3 protein was coupled, the FGL1 protein sampling method was used to verify the protein activity.
# (§3) Protein coupling buffer solution: 1.05× PBS-P+; 1.02× PBS-P+
# (§4) Interaction buffer solution: 1.0× PBS-P+, 5% DMSO; 1.0× PBS-P+, 2% DMSO
# (§5) In this experiment, by using the CM5 chip amino coupling method, the human LAG3 protein was immobilized to the Fc2 or Fc3 channel, and the mouse LAG3 protein was immobilized to the Fc3 or Fc4 channel.
# (§6) LAG3 protein coupling conditions were as follows: the concentration was about 25 µg/mL, the system was sodium acetate solution with a pH of 5.5, the chip activation time was 420 s, and the blocking time was 420 s.
# (§7) LAG3 protein coupling conditions were as follows: the concentration was about 50 µg/mL, the system was sodium acetate solution with a pH of 4.5, the chip activation time was 420 s, and the blocking time was 420 s.
# [3] = molecular target: T3, Human FGL1 protein (Homo sapiens, UniProt Q08830); assay: SPR interaction assay, human FGL1; format: binding; details: SPR
# T3 sequence (Q08830 23-312): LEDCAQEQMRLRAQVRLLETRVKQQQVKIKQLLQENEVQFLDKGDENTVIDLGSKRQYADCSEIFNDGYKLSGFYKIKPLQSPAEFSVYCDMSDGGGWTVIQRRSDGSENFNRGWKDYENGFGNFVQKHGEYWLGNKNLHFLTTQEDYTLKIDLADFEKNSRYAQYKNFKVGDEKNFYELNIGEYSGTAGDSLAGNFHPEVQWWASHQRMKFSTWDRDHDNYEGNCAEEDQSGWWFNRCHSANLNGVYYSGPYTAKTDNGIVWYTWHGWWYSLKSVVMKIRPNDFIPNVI
# From the text: as §1, §3, §4
# [4] = molecular target: T4, Mouse LAG3 protein (Mus musculus, UniProt Q61790); assay: SPR interaction assay, CM5 chip amino coupling, mouse LAG3; format: binding
# T4 sequence (Q61790 24-521): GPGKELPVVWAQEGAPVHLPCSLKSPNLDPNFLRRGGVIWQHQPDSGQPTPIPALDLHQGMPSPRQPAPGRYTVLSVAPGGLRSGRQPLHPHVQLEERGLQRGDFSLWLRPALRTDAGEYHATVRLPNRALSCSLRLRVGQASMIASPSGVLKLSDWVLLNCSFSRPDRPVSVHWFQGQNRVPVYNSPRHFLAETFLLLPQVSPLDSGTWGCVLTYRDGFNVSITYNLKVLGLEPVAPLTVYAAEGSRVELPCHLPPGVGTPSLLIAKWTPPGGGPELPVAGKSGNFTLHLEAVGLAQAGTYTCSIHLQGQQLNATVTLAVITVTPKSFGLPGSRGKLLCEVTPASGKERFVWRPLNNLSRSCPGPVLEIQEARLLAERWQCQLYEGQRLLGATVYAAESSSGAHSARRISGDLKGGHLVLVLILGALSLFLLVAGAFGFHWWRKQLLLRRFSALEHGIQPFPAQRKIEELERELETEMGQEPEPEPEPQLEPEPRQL
# From the text: as §1, §2, §3, §4, §5, §6, §7
structure (smiles),measurement,setting,value
COCCCCOc1ccc2cc1-c1cc(ccc1OCCCCOC)C(=O)CCCCCC2=O [Compound 7],pIC50,[1],4.45
CCCCCCCOc1ccc2cc1-c1cc(ccc1OCCCCCCC)C(=O)CCCCCC2=O [Compound 6],pIC50,[1],4.59
O=C1CCCCCC(=O)c2ccc(OC3CCCC3)c(c2)-c2cc1ccc2O [Compound 3],pIC50,[1],4.62
CCCCCOc1ccc2cc1-c1cc(ccc1OCCCCC)C(=O)CCCCCC2=O [Compound 5],pIC50,[1],4.48
CCCCCCOc1ccc(C(=O)O)cc1-c1cc(C(=O)NCCCNC(=O)C(F)(F)F)ccc1OCCCCCC [Compound 9],interaction with the human LAG3 protein,[2],interacts with the human LAG3 protein
same,Rmax,[2]; ligand Human LAG3 protein,129.5 RU
same,pKd,"[2]; ligand Human LAG3 protein, Compound 9 fitted in steady-state mode",3.49
same,Note,"[2]; ligand Human LAG3 protein, bound or not bound",Bound
same,pIC50,[1],5.25
same,interaction with the human FGL1 protein,[3],does not interact with the human FGL1 protein
same,Rmax,[3]; ligand FGL1 protein,3.346 E+5 RU
same,Note,"[3]; ligand FGL1 protein, bound or not bound",Not bound
same,interaction with the mouse LAG3 protein,[4],does not interact with the mouse LAG3 protein
same,Rmax,[4]; ligand Mouse LAG3 protein,8.130 E+4 RU
same,Note,"[4]; ligand Mouse LAG3 protein, bound or not bound",Not bound
CCCCCCOc1ccc(C(=O)O)cc1-c1cc(C(=O)NCCCCCNC(=O)C(F)(F)F)ccc1OCCCCCC [Compound 10],pIC50,[1],5.00
"COc1ccc2cc1-c1cc(ccc1OC)C(=O)CCCCCC2=O [Compound 1, 1^6,2^6-dimethoxy-1,2(1,3)-diphenylcyclononane-3,9-dione]",inhibition at 10 µM,[1],25.7%
"O=C1CCCCCC(=O)c2ccc(O)c(c2)-c2cc1ccc2O [Compound 2, 1^6,2^6-dihydroxy-1,2(1,3)-diphenylcyclononane-3,9-dione]",inhibition at 10 µM,[1],45.9%
CCCCCCOc1ccc(C(=O)O)cc1-c1cc(C(=O)NCCNC(=O)C(F)(F)F)ccc1OCCCCCC [Compound 11],pIC50,[1],5.10
CCCCCCOc1ccc(C(=O)NCCCCN)cc1-c1cc(C(=O)OC)ccc1OCCCCCC [Compound 12],pIC50,[1],< 4.00
